From article PMC9221546, “New Phenylglycinamide Derivatives with Hybrid Structure as Candidates for New Broad-Spectrum Anticonvulsants” (Cells, 2022)
Where two headings read alike, the source gives them in different places.

Assays:
mice = experiment: Capsaicin-induced hypothermia model / core body temperature; type: in vivo; conditions: i.p. 15 min before capsaicin 5 mg/kg; compound 60 50 mg/kg, BCTC 20 mg/kg
Protocol: Capsaicin was dissolved in 1% DMSO and administered at a dose of 5 mg/kg at a time point 0 min. Compound 60 and BCTC (positive control) were suspended in 1% Tween 80 and administered 15 min before capsaicin (at time point -15 min). All compounds were injected i.p. at a constant volume of 10 mL/kg. Control animals received the respective vehicles (1% DMSO or 1% Tween 80). Changes in the rectal temperature were measured using an electronic thermometer (ThermoWorks, Alpine, UT, USA) by inserting the rectal probe to a depth of ~2 cm into the rectum of the mouse. The measurements were taken at −15, 0, 15, 30, 60, 90, 120, and 180 min. The differences in the rectal temperature from baseline (time -15 min for groups receiving compound 60 and BCTC in combination with vehicle or time 0 min for groups receiving vehicle and capsaicin or compound 60 and BCTC in combination with capsaicin) to the respective time point ΔT (°C) were then calculated and analyzed. The results are shown in Figure 4 (see Section 3 Results and Discussion).
Figure 4 Effects of compound 60 and BCTC alone (A) or in combination with capsaicin (B) on the core body temperature in mice. Capsaicin (CPS) was injected at 0 min, as indicated by the arrow. Compound 60 or BCTC were administered 15 min prior to CPS injection. The temperature was measured at −15, 0, 15, 30, 60, 90, 120, and 180 min. Since body temperature returned to control values 60 min after CPS injection, subsequent measurements are not shown. Control animals received vehicles (1% DMSO or 1% Tween 80). All the compounds were administered i.p. Each experimental group consisted of seven to eight animals. The data are presented as the mean differences (ΔT) in rectal temperature from baseline (time −15 for A and time 0 for B) to the respective time point. The data were analyzed with one-way ANOVA followed by Tukey’s post hoc test. ** p < 0.01, *** p < 0.001, **** p < 0.0001 vs. the control group; ^#### p < 0.0001 vs. the CPS-treated group.

[1] = test system: scPTZ-induced seizures in mice; experiment: Subcutaneous pentylenetetrazole (scPTZ) seizure test; type: in vivo; conditions: 100 mg/kg i.p., 0.5 h
Protocol: (§1) Adult male Albino Swiss mice that weighed between 22 and 26 g were used in the in vivo studies. They were housed under standardized housing conditions in colony cages and had free access to food as well as tap water. The animals were left to adapt under laboratory conditions for 7 days. All procedures involving animals and their care were performed in accordance with the current European Community and Polish legislation on animal experimentation.
(§2) In the initial screening studies, four mice per group were randomly assigned to each experimental group (each mouse was used only once). To evaluate the ED50 or TD50 values, 3–4 groups that consisted of eight animals were injected with various doses of tested compounds. The protective indexes (PIs) for the compounds that were investigated and reference ASDs were calculated by dividing the TD50 value, as determined in the chimney test (or rotarod test), by the respective ED50 value, as determined in the MES, scPTZ, or 6 Hz (32 mA or 44 mA) tests (PI = TD50/ED50). The PIs is a measure of the potential therapeutic window of the tested agent.
(§3) All substances were suspended in Tween 80 (1% aqueous solution) and administered i.p. as a single injection at a dose of 10 mL/kg. On each day of experimentation, fresh solutions were prepared. The results are summarized in Table S1 (screening data) and Table 2 (ED50, TD50, and PI values, see Section 3 Results and Discussion).
(§4) The detailed in vivo procedures are described elsewhere: the maximal electroshock seizure test (MES), the subcutaneous pentylenetetrazole seizure test (scPTZ), the 6 Hz psychomotor seizure model (32 mA and 44 mA), and the chimney test.
(§5) The basic animal seizure models such as the MES, 6 Hz (32 mA or 44 mA), and the scPTZ are still a standard in the discovery and development of new ASDs. In vivo screening approaches enable the identification of compounds with unidentified and potentially novel mechanisms of action besides substances with well-established pharmacodynamics. Bearing in mind the aforementioned facts, compounds 45–66 were initially studied in the MES test and in the 6 Hz seizure model (32 mA) after intraperitoneal (i.p.) administration at a screening dose of 100 mg/kg in mice at a time point of 0.5 h (the screening group consisted of four mice, the results obtained are summarized in Table S1). It should be stressed that the MES test is an experimental model of human tonic–clonic epilepsy as well as partial convulsions with or without secondary generalization, the 6 Hz model (32 mA) corresponds to human focal epilepsy, whereas the scPTZ test relates to human generalized absence or myoclonic seizures.

[2] = test system: 6 Hz (32 mA) seizures in mice; experiment: 6 Hz (32 mA) psychomotor seizure model; type: in vivo; conditions: for responders at 100 mg/kg / ED50: Mus musculus, ip; for ED50: mice, pretreatment time 0.5 h, (95% confidence limits)
Protocol: as §1, §2, §3, §4, §5
(§6) We also established the median toxic doses (TD50) in the chimney test 0.5 h post i.p. administration of these compounds. Both the aforementioned parameters enabled the calculation of the protective indexes (PIs).

[3] = test system: MES-induced seizures in mice; experiment: Maximal electroshock seizure (MES) test; type: in vivo; conditions: for protection in MES screening / responders at 100 mg/kg: 100 mg/kg i.p., 0.5 h; for protection in MES screening: four mice; for responders at 100 mg/kg / ED50: Mus musculus, ip; for responders at 100 mg/kg: read-out: MES screening: number of mice protected/number of mice tested (converted); for ED50: mice, pretreatment time 0.5 h, (95% confidence limits)
Protocol: as §1, §2, §3, §4, §5, §6

TRPV1 (VR1) (h) [4] = biological target: T1, TRPV1 (VR1) (h) (Homo sapiens, UniProt Q8NER1); experiment: TRPV1 (VR1) (h) antagonist effect functional assay; type: cell-based; conditions: human recombinant CHO cells, read-out: % Inhibition of control agonist response, TRPV1 (antagonist effect)
T1 construct: host or cells: CHO
Protocol: (§7) Binding/functional studies were carried out commercially in Eurofins Laboratories (Poitiers, France) and Eurofins Panlabs Discovery Services Taiwan, Ltd. (New Taipei City, Taiwan) using testing procedures that were reported previously (for details see Table S2).
(§8) Table S2. Radioligand binding and functional assays. […]
Assays were performed commercially in Eurofins Laboratories (Poitiers, France) or Eurofins Panlabs Discovery Services Taiwan, Ltd. (New Taipei City, Taiwan).
Table S3. In vitro TRPV1 channel antagonist activity for compounds 45–66 (concentration of 100 µM). […]
Cmpd % Inhibition of control Cmpd % Inhibition of control agonist responsea agonist responsea
*Source: human recombinant CHO cells. a Results showing activity higher than 50% are considered to represent […]
variability of the sign al around the control level. Assays were performed commercially in Eurofins Laboratories

[5] = Chimney test (acute neurological deficit); conditions: mouse, in vivo, ip, mice
Protocol: as §2, §3, §4
We also established the median toxic doses (TD50) in the chimney test 0.5 h post i.p. administration of these compounds. […]

recombinant human CYP2C9 = biological target: T2, recombinant human CYP2C9 (Homo sapiens, UniProt P11712); experiment: CYP2C9 P450-Glo luminescent assay; type: in vitro ADME
T2 construct: purchased Promega (Madison, WI, USA)
Protocol: The risk of potential DDIs was predicted with use of luminescent CYP3A4, 2D6, and 2C9 P450-Glo assays (Figure 6). […] However, such an effect was also observed in our previous studies for other pyrrolidine-2,5-dione derivatives. […] However, the potential risk of DDI of 60 was still assessed as very low, and was compared to the selective CYP2C9 inhibitor sulfaphenazole (Figure 6C).
The data were analyzed with one-way ANOVA, followed by Bonferroni’s Multiple Comparison Post Test (Graph Pad Prism 8.0.1 software, San Diego, CA, USA)): * p < 0.05, ** p < 0.01, *** p < 0.001 **** p < 0.0001. The compounds were examined in triplicate.

[6] = biological target: T3, Cav1.2 (h) calcium ion channel (Homo sapiens, UniProt Q13936); experiment: Cav1.2 (h) calcium ion channel cell-based antagonist calcium flux assay; conditions: HEK293, human recombinant HEK-293 cell, read-out: % Inhibition of control agonist response, Cav1.2 calcium flux
T3 construct: Eurofins
Protocol: as §7, §8
TRPV1 (VR1) (h) (antagonist effect)
Cav1.2 (L-type) (h) calcium ion channel cell-based antagonist calcium flux assay
Assays were performed commercially in Eurofins Laboratories (Poitiers, France) or Eurofins Panlabs Discovery
Services Taiwan, Ltd. (New Taipei City, Taiwan). […]

Na+ channel (site 2) = Na+ channel (site 2) radioligand binding; conditions: 10 µM; rat cerebral cortex
[7] = biological target: T4, Calcium Cav1.2 channels (dihydropyridine site) (Homo sapiens, UniProt Q13936); experiment: Calcium Cav1.2 channel binding (dihydropyridine site, antagonist radioligand); conditions: 10 µM; human recombinant HEK-293 cell; read-out: % Inhibition of Control Specific Binding, Cav1.2 (dihydropyridine site)
T4 construct: host or cells: HEK-293

hepatoma HepG2 cell line = experiment: Hepatotoxicity, HepG2 viability (MTS); type: cell-based; conditions: 72 h treatment
Protocol: Figure 7 The effect of 53, 60, and 62, cytostatic drug doxorubicin (DX) and the mitochondrial toxin CCCP on the hepatoma HepG2 cell line viability after 72 h of incubation at 37 °C, 5% CO2. The data were analyzed with one-way ANOVA, followed by Bonferroni’s Comparison Test (Graph Pad Prism 8.0.1 software, San Diego, CA, USA)): ** p < 0.01, **** p < 0.0001 vs. negative control (DMSO 1% in growth media).

[8] = Metabolic stability in human liver microsomes (HLMs)
TRPV1 (VR1) (h) [9] = biological target: T1, TRPV1 (VR1) (h); experiment: TRPV1 (VR1) (h) antagonist effect functional assay; type: cell-based; conditions: human recombinant CHO cells
[10] = test system: 6 Hz (44 mA) seizures in mice; conditions: i.p., pretreatment 0.5 h; cited from earlier work
[11] = test system: 6 Hz (32 mA) seizures in mice; conditions: i.p., pretreatment 0.5 h (LEV 1.0 h); cited from earlier work
[12] = test system: MES-induced seizures in mice; conditions: i.p., pretreatment 0.5 h (LEV 1.0 h); cited from earlier work
[13] = 100 mg/kg i.p., 0.5 h, read-out: 6 Hz (32 mA) screening: number of mice protected/number of mice tested (converted)
[14] = 100 mg/kg i.p., 0.5 h, four mice, read-out: protection in 6 Hz (32 mA) screening

T1 sequence (Q8NER1 whole entry): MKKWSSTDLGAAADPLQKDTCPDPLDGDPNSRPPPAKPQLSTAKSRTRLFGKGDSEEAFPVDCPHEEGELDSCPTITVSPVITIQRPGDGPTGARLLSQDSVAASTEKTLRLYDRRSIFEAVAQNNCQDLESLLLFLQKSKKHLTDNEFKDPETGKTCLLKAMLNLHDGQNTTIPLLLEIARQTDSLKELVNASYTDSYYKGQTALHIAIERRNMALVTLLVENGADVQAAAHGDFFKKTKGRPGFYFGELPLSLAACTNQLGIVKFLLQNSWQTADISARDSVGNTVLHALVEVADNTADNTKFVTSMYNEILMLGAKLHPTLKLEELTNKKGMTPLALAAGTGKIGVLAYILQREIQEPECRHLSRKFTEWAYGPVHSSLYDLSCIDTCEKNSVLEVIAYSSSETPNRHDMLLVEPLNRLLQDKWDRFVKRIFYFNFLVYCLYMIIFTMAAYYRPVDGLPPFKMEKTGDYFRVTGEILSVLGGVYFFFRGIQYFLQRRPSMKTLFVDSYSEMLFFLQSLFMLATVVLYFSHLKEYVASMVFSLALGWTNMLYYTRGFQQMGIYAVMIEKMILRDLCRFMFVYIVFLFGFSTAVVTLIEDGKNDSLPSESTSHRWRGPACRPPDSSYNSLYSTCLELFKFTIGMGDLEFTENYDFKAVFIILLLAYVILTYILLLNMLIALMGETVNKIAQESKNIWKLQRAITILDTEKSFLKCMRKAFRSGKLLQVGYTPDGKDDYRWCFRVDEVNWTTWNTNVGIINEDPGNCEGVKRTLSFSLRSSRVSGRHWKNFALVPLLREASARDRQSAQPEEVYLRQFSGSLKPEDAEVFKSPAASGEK
T2 sequence (P11712 whole entry): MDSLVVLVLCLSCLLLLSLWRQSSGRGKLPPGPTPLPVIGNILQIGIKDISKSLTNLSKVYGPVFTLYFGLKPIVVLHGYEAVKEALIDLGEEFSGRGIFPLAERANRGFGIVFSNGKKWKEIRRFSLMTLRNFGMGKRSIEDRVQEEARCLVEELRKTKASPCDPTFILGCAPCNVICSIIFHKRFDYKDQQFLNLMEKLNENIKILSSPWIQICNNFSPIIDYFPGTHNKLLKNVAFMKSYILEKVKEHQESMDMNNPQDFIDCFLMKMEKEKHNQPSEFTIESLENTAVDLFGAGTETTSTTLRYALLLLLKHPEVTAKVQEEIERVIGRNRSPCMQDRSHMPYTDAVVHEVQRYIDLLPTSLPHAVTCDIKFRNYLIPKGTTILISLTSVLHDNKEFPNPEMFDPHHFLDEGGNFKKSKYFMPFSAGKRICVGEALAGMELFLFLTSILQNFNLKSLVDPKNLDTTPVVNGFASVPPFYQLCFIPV

Compound	scPTZ screening: number of mice protected/number of mice tested [1]	responders at 100 mg/kg [2, 13] [%]	protection in MES screening [3]	responders at 100 mg/kg [3] [%]	inhibition at 100 µM (TRPV1 (VR1) (h) [4]) [%]	responders at 100 mg/kg [2, 14] [%]	ED50 [2] [mg/kg]	ED50 [3] [mg/kg]	further results
CC(C)(C)c1ccc(NC(=O)N2CCN(c3ncccc3Cl)CC2)cc1 [BCTC, N-(4-Tertiarybutylphenyl)-4-(3-Chloropyridin-2-Yl)Tetrahydropyrazine-1(2H)-Carbox-Amide, reference compound]	0/4	0	ineffective	0					effect on capsaicin-induced hypothermia (co-administration) (mice): prevented the capsaicin-evoked decrease in body temperature; protection in scPTZ screening ([1]; four mice): ineffective; protection in 6 Hz (32 mA) screening ([2]; 100 mg/kg i.p., 0.5 h, four mice): ineffective
CC(=O)NC(C(=O)N1CCN(c2cccc(Cl)c2)CC1)c1ccccc1 (centres unmarked) [Compound 47, N-(2-(4-(3-chlorophenyl)piperazin-1-yl)-2-oxo-1-phenylethyl)acetamide]		75		0	125	75	88.4	> 150	melting point: 145.5 to 146.7 °C; TD50 at 0.5 h [5]: > 500 mg/kg
CC(=O)NC(C(=O)N1CCN(c2cccc(SC(F)(F)F)c2)CC1)c1ccccc1 (centres unmarked) [Compound 62, N-(2-oxo-1-phenyl-2-(4-(3-((trifluoromethyl)thio)phenyl)piperazin-1-yl)ethyl)acet--amide]	0/4	100	75%	75	135	100	33.2	76.1	influence on CYP2C9 activity (recombinant human CYP2C9): weak inhibition effect; inhibition at 10 µM [6]: 65%; % Inhibition of Control Specific Binding, Na+ channel (site 2) (Na+ channel (site 2)): 57.0 (10) %; inhibition at 10 µM [7]: 12%; effect on HepG2 cell viability (hepatotoxicity) (hepatoma HepG2 cell line): highest hepatotoxic risk; remaining at 2 h ([8]; human, human liver microsomes): 84%; Metabolic Pathway ([8]; metabolites after 120 min incubation with HLMs): hydroxylation; IC50 (TRPV1 (VR1) (h) [9]): 10 µM; Kb (TRPV1 (VR1) (h) [9]): 1.4 µM
O=C(C(c1ccccc1)N1C(=O)CCC1=O)N1CCN(c2cccc(C(F)(F)F)c2)CC1 (centres unmarked) [KA-104]									ED50 6 Hz (44 mA) [10]: 73.2 (57.4–93.4) mg/kg; ED50 6 Hz (32 mA) [11]: 22.4 (17.4−28.8) mg/kg; ED50 MES [12]: 23.7 (18.4−31.2) mg/kg
